Values after ≈ are worked out from the molar mass of the structure shown. Inconclusive results are not listed. Active and inactive are the calls of the source. The rule behind the calls is not given here.
Test system: M. tuberculosis H37Rv growth inhibition
Experiment: Confirmatory growth inhibition assay against Mycobacterium tuberculosis H37Rv, potency (AID 1949);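 note: bacteria grown 7 days with compound before Alamar blue readout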

How did the IC50 turn out when `CCCCOc1ccc(C(=O)NC23CC4CC(CC(C4)C2)C3)cc1` was run?
The IC50 was 4.33 µg/mL (≈ 13.2 µM).

Which IC50 does the source give for `Cc1nc(N2CCN(Cc3ccc4c(c3)OCO4)CC2)nc2c1C(=O)CC(c1ccco1)C2` (stereo not drawn) here?
The IC50 was 5.06 µg/mL (≈ 11.3 µM).

For `CCCCNCCCCCOc1ccc(Cl)cc1Cl`, which IC50 is on record?
The IC50 was 4.18 µg/mL (≈ 13.7 µM).

For `COc1ccc(Cc2nnc(SCC(=O)NCCc3ccccc3)o2)cc1`, which IC50 is on record?
Its IC50 is less than 0.1 µg/mL.

For `COc1ccc(Cl)cc1CN1CCN(c2ncnc3scc(-c4ccccc4)c23)CC1`, which IC50 is on record?
The IC50 was 4.15 µg/mL (≈ 9.2 µM).

With `CC(C)(C)c1ccc(OCCN2C(=O)C(=O)c3cc(Br)ccc32)cc1` as the compound, how does the IC50 read?
The IC50 was 1.49 µg/mL (≈ 3.7 µM).

Which IC50 does the source give for `COc1cccc(NC(=O)Nc2ccc(C(F)(F)F)cc2)c1` here?
The IC50 was 5.23 µg/mL (≈ 16.9 µM).

How did the IC50 turn out when `O=C(NCCC1=CCCCC1)Nc1ccc([N+](=O)[O-])cc1` was run?
Its IC50 is 11.6 µg/mL (≈ 40 µM).

With `O=C(CSc1ccc(F)cc1)Nc1ccccc1F` as the compound, how does the IC50 read?
The IC50 was 5.83 µg/mL (≈ 20.9 µM).

Which IC50 does the source give for `Cc1cccc(-n2nc([N+](=O)[O-])c(=NCCC3=CCCCC3)n2O)c1` here?
The IC50 was 3.62 µg/mL (≈ 10.5 µM).

`CCN(CC)c1ccc(NC(=S)Nc2ccc(F)c(Cl)c2)cc1` was tested. Which IC50 did it give?
Its IC50 is 7.64 µg/mL (≈ 21.7 µM).

With `O=[N+]([O-])c1ccc(NCCNc2nc3ccccc3nc2N2CCOCC2)cc1` as the compound, how does the IC50 read?
Its IC50 is 1.64 µg/mL (≈ 4.16 µM).

Which IC50 does the source give for `Cn1c(Sc2cnn(-c3ccccc3)c(=O)c2Br)nnc1-c1ccccc1` here?
Its IC50 is 2.81 µg/mL (≈ 6.38 µM).

For `Cn1nc(-c2ccc(N3CCCCC3)c(NC(=O)c3ccco3)c2)c2ccccc2c1=O`, which IC50 is on record?
The IC50 was > 50 µg/mL (inactive).

For `CCCCCn1c(NCc2ccc(N(C)C)cc2)nc2ccccc21`, which IC50 is on record?
The IC50 was 2.9 µg/mL (≈ 8.62 µM).

With `COc1ccc(-c2ccc(C#N)c(SCC(=O)OCc3ccccc3)n2)cc1` as the compound, how does the IC50 read?
The IC50 was 14.3 µg/mL (≈ 36.5 µM).

For `Cc1ccc(-n2cc(-c3ccccc3)c3c(NCc4cccnc4)ncnc32)cc1`, which IC50 is on record?
The IC50 was 3.25 µg/mL (≈ 8.3 µM).

`CCOC(=O)/C=C/C(=O)Nc1sc2c(c1C(=O)OC)CCC2` was tested. Which IC50 did it give?
The IC50 was 0.57 µg/mL (≈ 1.76 µM).

With `O=[N+]([O-])c1ncn(Cc2ccc(Cl)cc2)n1` as the compound, how does the IC50 read?
The IC50 was 7.25 µg/mL (≈ 30.4 µM).

For `Oc1ccc(/C=C/c2nc(-c3ccccc3O)n(-c3ccccc3)n2)cc1`, which IC50 is on record?
Its IC50 is 5.63 µg/mL (≈ 15.8 µM).

`COc1ccc(-c2csc(Nc3ccc(C)cn3)n2)cc1` was tested. Which IC50 did it give?
Its IC50 is 7.18 µg/mL (≈ 24.1 µM).

`CCOc1ccc(NC(=O)COc2ccc(SC)cc2)cc1` was tested. Which IC50 did it give?
The IC50 was less than 0.1 µg/mL.

Which IC50 does the source give for `O=C(COc1ccc(Br)cc1)c1ccc(F)cc1` here?
The IC50 was 10.7 µg/mL (≈ 34.5 µM).

How did the IC50 turn out when `COc1cc(CNC(C)c2ccccc2)cc(Br)c1OCc1ccc(F)cc1` (stereo not drawn) was run?
The IC50 was 4.06 µg/mL (≈ 9.14 µM).

With `CC(C)(C)c1ccc(-c2nc(-c3ccncc3)no2)cc1` as the compound, how does the IC50 read?
Its IC50 is > 50 µg/mL (inactive).

For `COc1ccc(C(=O)CCN2CCCC(C)C2)cc1` (stereo not drawn), which IC50 is on record?
Its IC50 is 35 µg/mL (≈ 134 µM).

With `COc1cc(NC(=O)C(Cl)Cl)c(OC)cc1Cl` as the compound, how does the IC50 read?
The IC50 was 2.68 µg/mL (≈ 8.98 µM).

How did the IC50 turn out when `CCC(C)c1ccccc1OCC(=O)Nc1cccc(-c2nnc(-c3ccco3)o2)c1` (stereo not drawn) was run?
Its IC50 is 8.07 µg/mL (≈ 19.3 µM).

How did the IC50 turn out when `COC(=O)COc1cc2oc(=O)cc(-c3ccccc3)c2cc1Cl` was run?
The IC50 was 29 µg/mL (≈ 84.1 µM).

With `COc1cccc(CN2CCN(C(=O)Nc3ccc(Cl)c(Cl)c3)CC2)c1` as the compound, how does the IC50 read?
The IC50 was 5.13 µg/mL (≈ 13 µM).

With `O=C(Nc1ccc(Cl)cc1C(F)(F)F)c1ccc([N+](=O)[O-])o1` as the compound, how does the IC50 read?
Its IC50 is 2.42 µg/mL (≈ 7.23 µM).

`CC(C)(C)c1ccc(C(=O)NC(=S)Nc2cccc(C#N)c2)cc1` was tested. Which IC50 did it give?
The IC50 was > 50 µg/mL (inactive).

`Clc1ccc(OCCCNCc2ccccc2)c2ccccc12` was tested. Which IC50 did it give?
Its IC50 is 1.36 µg/mL (≈ 4.17 µM).

How did the IC50 turn out when `COc1ccc(/C=C/c2nc3ccccc3c(=O)o2)cc1` was run?
Its IC50 is 27.6 µg/mL (≈ 99 µM).

Which IC50 does the source give for `CCOC(=O)COc1ccc(S(=O)(=O)Nc2ccc(C)c(C)c2)cc1` here?
Its IC50 is 1.03 µg/mL (≈ 2.83 µM).

Which IC50 does the source give for `CCOCC(=O)Nc1sc2c(c1C(=O)OCC)CCCC2` here?
The IC50 was > 50 µg/mL (inactive).

How did the IC50 turn out when `Oc1ccccc1CNCCC12CC3CC(CC(C3)C1)C2` was run?
The IC50 was > 50 µg/mL (inactive).

How did the IC50 turn out when `O=C(Nc1ccc2c(c1)OCCO2)C(Cl)Cl` was run?
Its IC50 is 6.65 µg/mL (≈ 25.4 µM).

For `CCc1nc2sc(C(=O)NCc3ccc(F)cc3)c(N)c2c(C(F)(F)F)c1C`, which IC50 is on record?
The IC50 was 2.61 µg/mL (≈ 6.34 µM).

How did the IC50 turn out when `CCCCOc1ccc(S(=O)(=O)Nc2ccc(Cl)cc2)cc1` was run?
The IC50 was 4.09 µg/mL (≈ 12 µM).

How did the IC50 turn out when `Cc1cc(-n2c(C)cc(/C=C3\NC(=O)NC3=O)c2C)ccc1Br` was run?
Its IC50 is 8.38 µg/mL (≈ 22.4 µM).

`N#Cc1ccc(NC(=O)Nc2cccc(Cl)c2)cc1` was tested. Which IC50 did it give?
Its IC50 is 4.6 µg/mL (≈ 16.9 µM).

With `Cc1ccc(-c2csc(Nc3ccc(C(=O)O)c(O)c3)n2)cc1` as the compound, how does the IC50 read?
Its IC50 is 1.46 µg/mL (≈ 4.47 µM).

`Cc1ccc(Cl)cc1N1CCN(CC(O)COc2ccc3ccccc3c2)CC1` (stereo not drawn) was tested. Which IC50 did it give?
The IC50 was 4.13 µg/mL (≈ 10.1 µM).

`CCc1ccccc1-n1c(=O)oc2ccc(Cl)cc2c1=O` was tested. Which IC50 did it give?
The IC50 was 1.37 µg/mL (≈ 4.54 µM).

With `CC(C)(C)NC(=O)c1cc2cc([N+](=O)[O-])ccc2oc1=O` as the compound, how does the IC50 read?
The IC50 was 1.48 µg/mL (≈ 5.1 µM).

Which IC50 does the source give for `O=[N+]([O-])c1c(-n2cccn2)nn(-c2ccccc2)c1C(Cl)Cl` here?
The IC50 was 3.09 µg/mL (≈ 9.14 µM).

How did the IC50 turn out when `Cc1cc(Nc2ccc(Cl)cc2)nc(NCc2ccccc2)n1` was run?
The IC50 was 1.34 µg/mL (≈ 4.13 µM).

With `COc1ccc2c(c1)CC1=C2CCC2(C)C1=CCC2OC(C)=O` (stereo not drawn) as the compound, how does the IC50 read?
The IC50 was 21.6 µg/mL (≈ 69.8 µM).

For `Cc1cc(C)c2nc(NC3=NC(c4ccccc4)CC(=O)N3)nc(C)c2c1` (stereo not drawn), which IC50 is on record?
Its IC50 is > 50 µg/mL (inactive).

Which IC50 does the source give for `CCCCc1ccc(NC(=S)NC(=O)c2ccc(OCC)c(Cl)c2)cc1` here?
Its IC50 is 0.34 µg/mL (≈ 0.87 µM).

Which IC50 does the source give for `O=S1(=O)C=C(Sc2nnc(-c3ccccc3)o2)c2ccccc21` here?
Its IC50 is 0.31 µg/mL (≈ 0.905 µM).

How did the IC50 turn out when `CCOc1ccc(C(=O)NC(=S)Nc2ccc(N3CCN(C)CC3)c(Cl)c2)cc1Cl` was run?
The IC50 was > 50 µg/mL (inactive).

For `CCOC(=O)C1=C(C)N(c2ccc(Br)cc2)C(=O)C1`, which IC50 is on record?
Its IC50 is 3.23 µg/mL (≈ 9.96 µM).

How did the IC50 turn out when `CCOc1ccc(Nc2nc(N)c(C(=O)C(C)(C)C)s2)cc1` was run?
Its IC50 is 5.96 µg/mL (≈ 18.7 µM).

How did the IC50 turn out when `S=C(NCc1ccc(Cl)cc1)N1CCN(C/C=C/c2ccccc2)CC1` was run?
Its IC50 is 1.99 µg/mL (≈ 5.16 µM).

With `O=C(COc1cccc2ccccc12)c1ccc(F)cc1` as the compound, how does the IC50 read?
Its IC50 is 2.82 µg/mL (≈ 10.1 µM).

`Oc1ccc(Cl)cc1C1=NNC(c2ccccc2Cl)C1` (stereo not drawn) was tested. Which IC50 did it give?
Its IC50 is 0.65 µg/mL (≈ 2.12 µM).
